Where two headings read alike, the source gives them in different places.
Experiments:
human Kv4.3 = target: T1, human Kv4.3 (Homo sapiens, UniProt Q9UK17); experiment: C. elegans based high-throughput screen for Kv4.3 modulators (pharynx pumping, Calcein AM uptake), strain UG1755; type: in vivo; conditions: for Ratio N2/Kv4.3: EC50 on N2 divided by EC50 on the Kv4.3 expressing strain, cut-off 1.8; for EC50: transgenic strain expressing human Kv4.3, read-out: EC50 (μM) Kv4.3 worm
T1 construct: expressed in transfected cells; host or cells: transgenic C. elegans strain UG1755 (plasmid pGV8 integrated; expression in the pharynx)
T1 sequence (Q9UK17 1-655): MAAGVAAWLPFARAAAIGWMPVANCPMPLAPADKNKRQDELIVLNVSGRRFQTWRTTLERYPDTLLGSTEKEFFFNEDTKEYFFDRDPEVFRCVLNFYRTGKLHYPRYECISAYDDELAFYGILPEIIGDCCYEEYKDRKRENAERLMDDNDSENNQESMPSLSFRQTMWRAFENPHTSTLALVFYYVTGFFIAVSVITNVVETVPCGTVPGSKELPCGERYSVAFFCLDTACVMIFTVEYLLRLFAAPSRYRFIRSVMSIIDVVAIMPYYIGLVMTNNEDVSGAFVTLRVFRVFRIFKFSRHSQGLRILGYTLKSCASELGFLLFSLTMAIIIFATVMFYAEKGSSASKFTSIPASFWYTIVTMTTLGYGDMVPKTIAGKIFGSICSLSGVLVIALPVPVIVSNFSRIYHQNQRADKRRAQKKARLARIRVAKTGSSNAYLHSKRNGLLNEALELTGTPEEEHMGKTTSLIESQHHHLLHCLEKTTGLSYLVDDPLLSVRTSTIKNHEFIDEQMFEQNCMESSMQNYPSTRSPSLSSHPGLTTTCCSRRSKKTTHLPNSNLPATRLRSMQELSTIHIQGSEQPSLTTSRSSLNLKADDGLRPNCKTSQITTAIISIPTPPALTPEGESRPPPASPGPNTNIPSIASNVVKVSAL
Description: A C. elegans based high-throughput screen for Kv4.3 modulators has been used to establish an in vivo SAR (structure-activity relationships: the effect of chemical structure on biological activity) on Kv4.3 for the compounds according to the present invention.
This assay has employed a stable transgenic C. elegans strain that functionally expressed human Kv4.3 in the pharynx and a visible selection GFP maker in body-wall muscle.
The method to describe the construction of a transgenic C. elegans strain expressing human Kv4.3 has been described in WO 03/097682. Briefly, the actual used strain UG1755 has been generated by microinjection into the gonad of a wild-type strain N2 with a mix of 5 ng/μl plasmid pGV8 (human Kv4.3), 20 ng/μl pDW2821 (GFP-marker) and 40 ng/μl genomic C. elegans DNA. Transgenic animals have been isolated and submitted to integration of the extra-chromosomal array into the genome of C. elegans. A line with 50% transmission of the functional expressed human Kv4.3 has been mutagenized with gamma irradiation using a Cobalt source. About 12000 F2 animals have been singled out and their progeny has been screened for the 100% transmission of the GFP marker. Lines with 100% transmission of GFP have been considered as potentially integrated. These lines have been further tested and out-crossed with N2 strain two-times. All lines obtained have been tested for viability, GFP and human Kv4.3 expression. At the end of a selection process, UG1755 was identified as most suitable C. elegans strain amenable to high throughput screening (HTS). This stable strain has expressed human Kv4.3 as confirmed by electropharyngeograms (EPG) analysis. The method has been described in WO 03/097682. Briefly, dissected pharynxes of UG1755 C. elegans animals have been prepared and Electropharyngeograms (EPGs) have been recorded using an Axopatch-1D amplifier (Axon instruments). Pharynxes have been equilibrated for about 2 minutes in the bath solution (Dent's saline with 0.5% DMSO) until stable EPG recordings have been seen. Compound solution (DMSO or 100 μM Flecamide) has been added to the bath solution. The number of ultra short EPGs (10-20 ms) and normal EPGs (100-200 ms) has been analyzed and given as ratio in percentage. […] In addition standard qRT-PCR confirmed the presence of the human Kv4.3 transgene in UG1755 as well as human Kv4.3 protein has been detected with the human Kv4.3 antibody P 0358 in the pharynx of UG1755 animals. […]
Introducing the human Kv4.3 channel into the C. elegans pharynx influences the C. elegans action potential in a characteristic fashion. […] The pumping end-point can be technically translated into a high-throughput read-out by the use of a pro-fluorescent dye. […]

[1] = tested on: C. elegans wild-type strain N2; experiment: Same pumping assay format using C. elegans wild-type strain N2; type: in vivo; conditions: read-out: EC50 (μM) N2 worm
Description: The screening of the compounds according to the present invention has been performed in the C. elegans based high-throughput screen for Kv4.3 modulators described above. The method for testing the activity on human Kv4.3 of the compounds according to the invention with C. elegans strains expressing human Kv4.3 for their activity is the same as the method described in WO 03/097682. The method for testing the compounds on wild-type C. elegans strains not expressing human Kv4.3 is the same as the method described in WO 00/63427. Briefly, UG1755 animals have been grown in large numbers and staged young adults (no or only few eggs inside the uterus) have been harvested on the day of screening. Approximately 125 animals in 80 μl buffer have been dispensed per well of a “U” shaped 96-well compound plate. The compound plate contained already compound material at a final concentration of 30 μM in 0.3% DMSO. […] After another four hours of incubation at 20° C., the drinking of C. elegans animals (or the “reaction” as measured by the uptake of CAM) has been stopped by adding 10 μl of a 60 μM ivermectin solution. The fluorescence intensity (counts per second) has been measured 40 minutes after adding ivermectin with the Wallac plate reader at a wavelength of 535 nm (after excitation at 485 nm). […]

Compound	Ratio N2/Kv4.3 (human Kv4.3)	EC50 (human Kv4.3)	EC50 ([1]; Caenorhabditis elegans)	EC50 [1]
C[C@@H](NC(=O)c1cc2cc(Cl)ccc2o1)c1ccc([N+](=O)[O-])cc1 [Compound 1, 5-chloro-benzofuran-2-carboxylic acid [(R)-1-(4-nitro-phenyl)-ethyl]-amide]	>4.9	6.1 µM	> 30 µM	–
5-chloro-benzofuran-2- carboxylic acid [3- (10,11-dihydro- dibenzo[a,d]cyclohepten- 5-ylidene)-propyl]- methyl-amide [Compound 5]	5.7	4.2 µM	–	24 µM
